Results published in patent publication US12077503B2, “Substituted cyclic amides and their use as herbicides” (FMC CORPORATION, priority 2015, dated 2024).
Like-named read-outs stand apart in the source and are kept apart here.

Tests used:
Format in all cases: in vivo
[1] = test system: giant foxtail (Setaria faberii); experiment: Test A postemergence; conditions: Setaria faberi, post-emergence, 240 h; for pest or weed control at 125 g/ha: 125 g ai/ha, read-out: Foxtail, Giant plant response rating (0 to 100 scale); for pest or weed control at 500 g/ha: 500 g ai/ha
How it was run: (§1)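 Ratings of 0 (no effect) to 100 (complete control) come from visual comparison with untreated controls roughly 10 d after treatment. Test chemicals, formulated in a non-phytotoxic solvent mixture with surfactant, were applied either as a preemergence directed soil spray on seeded soil or postemergence to one- to two-leaf plants 2 to 10 cm tall.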

[2] = test system: wheat (Triticum aestivum); experiment: Test A postemergence; conditions: Triticum aestivum, post-emergence, 240 h; for plant injury at 125 g/ha: 125 g ai/ha, read-out: Wheat plant response rating (0 to 100 scale); for plant injury at 500 g/ha: 500 g ai/ha
How it was run: as §1

[3] = test system: Galium (catchweed bedstraw, Galium aparine); experiment: Test A postemergence; conditions: Galium, post-emergence, 240 h; for pest or weed control at 125 g/ha: 125 g ai/ha, read-out: Galium plant response rating (0 to 100 scale); for pest or weed control at 500 g/ha: 500 g ai/ha
How it was run: as §1

[4] = test system: ducksalad (Heteranthera limosa); experiment: Test B flooded paddy test; conditions: Heteranthera limosa, 250 g ai/ha, Flood; 0 to 100 scale where 0 is no effect and 100 is complete control; read-out: Ducksalad plant response rating
How it was run: (§2)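 Rating scale 0–100 (visual, vs untreated controls) after a 13–15 d greenhouse period; application to the flood layer, 3 cm above soil and maintained; plants at 2-leaf stage when treated.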

[5] = test system: barnyardgrass (Echinochloa crus-galli); experiment: Test B flooded paddy test; conditions: Echinochloa crus-galli, 250 g ai/ha, Flood; 0 to 100 scale where 0 is no effect and 100 is complete control; read-out: Barnyardgrass plant response rating
How it was run: as §2

rice (Oryra sativa) = experiment: Test B flooded paddy test; conditions: Oryza sativa, 250 g ai/ha, Flood; 0 to 100 scale where 0 is no effect and 100 is complete control; read-out: Rice plant response rating
How it was run: as §2

[6] = test system: sedge, umbrella (small-flower umbrella sedge, Cyperus difformis); experiment: Test B flooded paddy test; conditions: Cyperus difformis, 250 g ai/ha, Flood; 0 to 100 scale where 0 is no effect and 100 is complete control; read-out: Sedge, Umbrella plant response rating
How it was run: as §2

[7] = test system: barnyardgrass (Echinochloa crus-galli); experiment: Test A preemergence; conditions: Echinochloa crus-galli, pre-emergence, 240 h; for pest or weed control at 125 g/ha: 125 g ai/ha; for pest or weed control at 500 g/ha: 500 g ai/ha
How it was run: as §1

Kochia (Kochia scoparia) = experiment: Test A preemergence; conditions: Bassia scoparia, pre-emergence, 240 h; for pest or weed control at 125 g/ha: 125 g ai/ha; for pest or weed control at 500 g/ha: 500 g ai/ha
How it was run: as §1

[8] = test system: pigweed (Amaranthus retroflexus); experiment: Test A preemergence; conditions: Amaranthus retroflexus, pre-emergence, 240 h; for pest or weed control at 125 g/ha: 125 g ai/ha; for pest or weed control at 500 g/ha: 500 g ai/ha
[9] = test system: giant foxtail (Setaria faberii); experiment: Test A preemergence; conditions: Setaria faberi, pre-emergence, 240 h; for pest or weed control at 125 g/ha: 125 g ai/ha; for pest or weed control at 500 g/ha: 500 g ai/ha
How it was run: as §1

[10] = test system: ragweed (common ragweed, Ambrosia elatior); experiment: Test A preemergence; conditions: Ambrosia artemisiifolia, pre-emergence, 240 h, preemergence, 0 to 100 scale where 0 is no effect and 100 is complete control, read-out: Ragweed plant response rating; for pest or weed control at 125 g/ha: 125 g ai/ha, visual injury rating, approximately 10 d; for pest or weed control at 500 g/ha: 500 g ai/ha
How it was run: as §1

[11] = test system: ryegrass, Italian (Italian ryegrass, Lolium multiflorum); experiment: Test A preemergence; conditions: Lolium multiflorum, pre-emergence, 240 h; for pest or weed control at 125 g/ha: 125 g ai/ha; for pest or weed control at 500 g/ha: 500 g ai/ha
How it was run: as §1

[12] = postemergence, visual injury vs untreated controls after approx. 10 d, 0 = no effect, 100 = complete control
[13] = postemergence, 0 to 100 scale, 0 is no effect, 100 is complete control, read-out: Foxtail, Giant plant response rating
[14] = postemergence, 0 to 100 scale, 0 is no effect, 100 is complete control, read-out: Wheat plant response rating
[15] = postemergence, 0 to 100 scale, 0 is no effect, 100 is complete control, read-out: Galium plant response rating
[16] = preemergence, visual injury rating, 0 to 100 scale where 0 is no effect and 100 is complete control, approximately 10 d, read-out: Barnyardgrass plant response rating
[17] = preemergence, 0 to 100 scale where 0 is no effect and 100 is complete control, read-out: Barnyardgrass plant response rating
[18] = preemergence, visual injury rating, 0 to 100 scale where 0 is no effect and 100 is complete control, approximately 10 d, read-out: Kochia plant response rating
[19] = preemergence, 0 to 100 scale where 0 is no effect and 100 is complete control, read-out: Kochia plant response rating
[20] = preemergence, visual injury rating, 0 to 100 scale where 0 is no effect and 100 is complete control, approximately 10 d, read-out: Pigweed plant response rating
[21] = preemergence, 0 to 100 scale where 0 is no effect and 100 is complete control, read-out: Pigweed plant response rating
[22] = preemergence, visual injury rating, 0 to 100 scale where 0 is no effect and 100 is complete control, approximately 10 d, read-out: Foxtail, Giant plant response rating
[23] = preemergence, 0 to 100 scale where 0 is no effect and 100 is complete control, read-out: Foxtail, Giant plant response rating
[24] = preemergence, visual injury rating, 0 to 100 scale where 0 is no effect and 100 is complete control, approximately 10 d, read-out: Ryegrass, Italian plant response rating
[25] = preemergence, 0 to 100 scale where 0 is no effect and 100 is complete control, read-out: Ryegrass, Italian plant response rating
[26] = Postemergence, visual rating about 10 d after treatment

Compound | pest or weed control at 125 g/ha [1, 12] [%] | pest or weed control at 500 g/ha [1, 13] [%] | plant injury at 125 g/ha [2, 12] [%] | plant injury at 500 g/ha [2, 14] [%] | pest or weed control at 125 g/ha [3, 12] [%] | pest or weed control at 500 g/ha [3, 15] [%] | pest or weed control at 250 g/ha [4] [%] | pest or weed control at 250 g/ha [5] [%] | pest or weed control at 250 g/ha (rice (Oryra sativa)) [%] | pest or weed control at 250 g/ha [6] [%] | pest or weed control at 125 g/ha [7, 16] [%] | pest or weed control at 500 g/ha [7, 17] [%] | pest or weed control at 125 g/ha (Kochia (Kochia scoparia); [18]) [%] | pest or weed control at 500 g/ha (Kochia (Kochia scoparia); [19]) [%] | pest or weed control at 125 g/ha [8, 20] [%] | pest or weed control at 500 g/ha [8, 21] [%] | pest or weed control at 125 g/ha [9, 22] [%] | pest or weed control at 500 g/ha [9, 23] [%] | pest or weed control at 125 g/ha [10] [%] | pest or weed control at 500 g/ha [10] [%] | also measured
COc1ccc([C@H]2CN(C)C(=O)[C@@H]2C(=O)Nc2ccccc2F)c(OC)c1 [Compound 1215] | 70 | 90 | 0 | 0 | 0 | 0 | 70 | 0 | 0 | 0 | 90 | 100 | 0 | 90 | 0 | 0 | 60 | 90 | 0 | 0 | pest or weed control at 125 g/ha [11, 24]: 0%; pest or weed control at 500 g/ha [11, 25]: 0%
COc1cc([C@H]2CN(C)C(=O)[C@@H]2C(=O)Nc2ccccc2F)cc(OC)c1OC [Compound 1217] | 90 | 90 | 0 | 0 | 0 | 0 | 40 | 0 | 25 | 0 | 90 | 100 | 0 | 0 | 0 | 0 | 90 | 100 | 0 | 0 | pest or weed control at 125 g/ha [11, 24]: 0%; pest or weed control at 500 g/ha [11, 25]: 0%
Cc1cc([C@H]2CN(C)C(=O)[C@@H]2C(=O)Nc2cccc(F)c2C)ccc1F [Compound 1311] |  |  |  |  |  |  | 100 | 80 | 0 | 0 |  | 100 |  | 100 |  | 20 |  | 100 |  | 90 | pest or weed control at 125 g/ha [1, 26]: 90%; pest or weed control at 500 g/ha ([1]; Postemergence, visual injury, 0 to 100 scale (0 no effect, 100 complete control), approx. 10 d, read-out: Plant response rating, Foxtail, Giant): 90%; plant injury at 125 g/ha [2, 26]: 60%; plant injury at 500 g/ha ([2]; Postemergence, visual injury, 0 to 100 scale (0 no effect, 100 complete control), approx. 10 d, read-out: Plant response rating, Wheat): 80%; pest or weed control at 125 g/ha [3, 26]: 50%; pest or weed control at 500 g/ha ([3]; Postemergence, visual injury, 0 to 100 scale (0 no effect, 100 complete control), approx. 10 d, read-out: Plant response rating, Galium): 60%; pest or weed control at 125 g/ha ([7]; Preemergence, 0 to 100 scale (0 no effect, 100 complete control), read-out: Plant response rating, Barnyardgrass): 100%; pest or weed control at 125 g/ha (Kochia (Kochia scoparia); Preemergence, 0 to 100 scale (0 no effect, 100 complete control), read-out: Plant response rating, Kochia): 70%; pest or weed control at 125 g/ha ([8]; Preemergence, 0 to 100 scale (0 no effect, 100 complete control), read-out: Plant response rating, Pigweed): 0%; pest or weed control at 125 g/ha ([9]; Preemergence, 0 to 100 scale (0 no effect, 100 complete control), read-out: Plant response rating, Foxtail, Giant): 100%; pest or weed control at 125 g/ha ([11]; Preemergence, 0 to 100 scale (0 no effect, 100 complete control), read-out: Plant response rating, Ryegrass, Italian): 70%
